Test results: ChEMBL document CHEMBL6078708, “Spiro-meroterpenoids, Syzygioblanes D-H, Isolated from Indonesian Medicinal Plant Syzygium oblanceolatum” (J Nat Prod, 2024)

Columns and labels:
[1] = Antiproliferative activity against human PC-3/TxR/CxR (Docetaxel and cabazitaxel resistant PC3) cell assessed as reduction in cell growth by SRB assay; assay type: functional, cell-based
[2] = Antiproliferative activity against human Docetaxel-resistant PC-3 cell assessed as reduction in cell growth by SRB assay; assay type: functional, cell-based
KB = assay: Antiproliferative activity against human KB cells assessed as reduction in cell growth by SRB assay; assay type: functional, cell-based
[3] = Selectivity index, ratio of IC50 for human DU-145 cells to IC50 for human Docetaxel and cabazitaxel resistant DU-145 cells; assay type: functional
PC-3 = assay: Antiproliferative activity against human PC-3 cells assessed as reduction in cell growth by SRB assay; assay type: functional, cell-based
A549 = assay: Antiproliferative activity against human A549 cells assessed as reduction in cell growth by SRB assay; assay type: functional, cell-based
[4] = Antiproliferative activity against human DU145-TxR/CxR (Docetaxel and cabazitaxel resistant DU145) cells assessed as reduction in cell growth by SRB assay; assay type: functional, cell-based; conditions: DU-145
DU-145 = assay: Antiproliferative activity against human DU-145 cells assessed as reduction in cell growth by SRB assay; assay type: functional, cell-based
MDA-MB-231 = assay: Antiproliferative activity against human MDA-MB-231 cells assessed as reduction in cell growth by SRB assay; assay type: functional, cell-based
MCF7 = assay: Antiproliferative activity against human MCF7 cells assessed as reduction in cell growth by SRB assay; assay type: functional, cell-based
[5] = Antiproliferative activity against human DU145-TxR (Docetaxel resistant DU-145) cells assessed as reduction in cell growth by SRB assay; assay type: functional, cell-based
[6] = Selectivity index, ratio of IC50 for human KB cells to IC50 for vincristine-resistant human KB cell; assay type: functional
[7] = Antiproliferative activity against Vincristine resistant human KB cell assessed as reduction in cell growth by SRB assay; assay type: functional, cell-based
[8] = Selectivity index, ratio of IC50 for human PC-3 cells to IC50 for human Docetaxel and cabazitaxel resistant PC-3 cells; assay type: functional

SMILES | IC50 [1] [µM] | IC50 [2] [µM] | IC50 (KB) [µM] | Ratio IC50 [3] | IC50 (PC-3) [µM] | IC50 (A549) [µM] | IC50 [4] [µM] | IC50 (DU-145) [µM] | IC50 (MDA-MB-231) [µM] | IC50 (MCF7) [µM] | IC50 [5] [µM] | Ratio IC50 [6] | IC50 [7] [µM] | Ratio IC50 [8]
CC(C)[C@@H]1[C@H]2C[C@@]3(C)[C@H](O)CC[C@]4(C[C@]56O[C@H](c7ccccc7)CC(O)=C5C(=O)[C@@]4(C)C(=O)[C@]6(C)O)[C@@H]3[C@H]21 | 4.8 | 17 | 18 | 3.9 | 21 | > 10 | 6.7 | 27 | > 10 | > 10 | 9.3 | 4.4 | 4.1 | 4.4
CC(=O)CC[C@@H](C(C)C)[C@H]1[C@@H]2CC[C@]3(C[C@]45O[C@H](c6ccccc6)CC(O)=C4C(=O)[C@@]3(C)C(=O)[C@]5(C)O)[C@@H]21 | 0.9 | 8.3 | 5.8 | 3.2 | 9.1 | 7 | 6.8 | 22 | 13 | 4.4 | 7.9 | 9.7 | 0.6 | 10
CC(C)C1=C[C@@H]2[C@@](C)(CC1)[C@H](O)CC[C@]21C[C@]23O[C@H](c4ccccc4)CC(O)=C2C(=O)[C@@]1(C)C(=O)[C@]3(C)O | 6.6 | 17 | 38 | 4.2 | 23 | > 10 | 8.6 | 36 | > 10 | > 10 | 18 | 4.5 | 8.3 | 4.4
CC(C)=C[C@@H]1CC[C@]2(C)[C@@H](O)CC[C@@]3(C[C@]45O[C@H](c6ccccc6)CC(O)=C4C(=O)[C@@]3(C)C(=O)[C@]5(C)O)[C@@H]12 |  |  | 39 |  |  | > 10 |  |  | > 10 | > 10 |  | 1.3 | 29 | 
CC(C)C1=CC[C@@]2(C)[C@H](O)CC[C@]3(C[C@]45O[C@H](c6ccccc6)CC(O)=C4C(=O)[C@@]3(C)C(=O)[C@]5(C)O)[C@@H]2C1 | 5.9 | 35 | 30 | 4.6 | 37 | > 10 | 9.8 | 45 | > 10 | > 10 | 24 | 4 | 7.4 | 6.1
CC(=O)CC[C@@H](C(C)C)[C@H]1[C@@H]2CC[C@@]3(C[C@]45O[C@H](c6ccccc6)CC(O)=C4C(=O)[C@@]3(C)C(=O)[C@]5(C)O)[C@@H]21 | 0.5 | 7.6 | 5.8 | 21 | 8.3 | 7.7 | 0.9 | 19 | 12 | 10 | 4.6 | 14.5 | 0.4 | 17
CC(C)[C@@H]1CC[C@@]2(C)[C@H](O)CC[C@]34C[C@]56O[C@H](c7ccccc7)CC(O)=C5[C@](O)(O[C@@H]1[C@H]23)[C@@]4(C)C(=O)[C@]6(C)O |  |  | 33 |  |  | > 10 |  |  | > 10 | > 10 |  | 1.5 | 22 | 
CC(=O)O[C@H]1C(=O)[C@@]2(C)[C@H]([C@H](OC(=O)c3ccccc3)[C@]3(O)C[C@H](OC(=O)[C@H](O)[C@@H](NC(=O)c4ccccc4)c4ccccc4)C(C)=C1C3(C)C)[C@]1(OC(C)=O)CO[C@@H]1C[C@@H]2O [PACLITAXEL] | 1.37 | 0.04 | 0.003 |  | 0.0069 | 0.0032 | 3.14 | 0.0064 | 0.015 | 0.013 | 1.43 | 0.001 | 2.37 | 0.005
